# Test results: patent US4285940A, “Cephalosporin derivatives, and antibacterial drugs comprising said derivatives” (Eisai Co., Ltd., priority 1979, dated 1981)
# Assays:
# [1] = test system: Serratia marcescens ES-75; assay: MIC by standard agar dilution method of the Japan Society of Chemotherapy; type: cell-based; settings: ES75, Mueller Hinton agar, 18 hours at 37° C., Examples 1, 2, 4 as sodium salts, Example 5 as free acid
# Protocol: (§1) Minimal inhibitory concentration (MIC) was determined by the standard agar dilution method of the Japan Society of Chemotherapy.
# (§2) The compounds described in Examples 1, 2 and 4 were dissolved in sterilized water; the compound described in Example 5 was dissolved in acetone-water (1:1); and the control compound, cephaloglycin, was dissolved in a 3% sodium hydrogen carbonate solution.
# (§3) Serial two-fold dilutions were made from the above solutions.
# (§4) One-ml aliquots of each dilution were mixed with 9 ml of Mueller Hinton agar in petri-dishes to make agar plates containing the compound at serially diluted concentrations. After agar hardened, plates were put in an incubator at 37° C. for 1.5-2 hours with the lids slightly open to evaporate acetone off the plates.
# (§5) Test organisms were grown for 18 hours at 37° C. in Trypticase Soy broth and diluted in saline to approximately 10^6 colony forming units per ml. A loopful of each cell suspension was applied on the agar plate mentioned above and the plates were incubated for 18 hours at 37° C. before MIC was determined.
# (§6) MIC values of the compounds described in Examples 1, 2 and 4 were determined as their sodium salts and the compound described in Example 5 was determined as a free carboxylic acid.
# [2] = test system: Staphylococcus aureus 209P; assay: as above; type: cell-based; settings: Mueller Hinton agar, 18 hours at 37° C., Examples 1, 2, 4 as sodium salts, Example 5 as free acid
# Protocol: as §1, §2, §3, §4, §5, §6
# [3] = test system: Klebsiella pneumoniae EK-6; assay: as above; type: cell-based; settings: EK6, Mueller Hinton agar, 18 hours at 37° C., Examples 1, 2, 4 as sodium salts, Example 5 as free acid
# Protocol: as §1, §2, §3, §4, §5, §6
# [4] = test system: Pseudomonas aeruginosa EP-172; assay: as above; type: cell-based; settings: EP172, Mueller Hinton agar, 18 hours at 37° C., Examples 1, 2, 4 as sodium salts, Example 5 as free acid
# Protocol: as §1, §2, §3, §4, §5, §6
# Escherichia coli NIHJ = assay: as above; type: cell-based; settings: Mueller Hinton agar, 18 hours at 37° C., Examples 1, 2, 4 as sodium salts, Example 5 as free acid
# Protocol: as §1, §2, §3, §4, §5, §6
# Proteus morganii EP-14 = assay: as above; type: cell-based; settings: Morganella morganii, EP14, Mueller Hinton agar, 18 hours at 37° C., Examples 1, 2, 4 as sodium salts, Example 5 as free acid
# Protocol: as §1, §2, §3, §4, §5, §6
# [5] = acute toxicity (mouse, oral administration); settings: in vivo
Compound,MIC [1] [µg/mL],MIC [2] [µg/mL],MIC [3] [µg/mL],MIC [4] [µg/mL],MIC (Escherichia coli NIHJ) [µg/mL],MIC (Proteus morganii EP-14) [µg/mL],LD50 [5] [mg/kg]
"CC(=O)OCC1=C(C(=O)O)N2C(=O)[C@@H](NC(=O)[C@H](N)c3ccccc3)[C@H]2SC1 [Cephaloglycin, cephaloglycin, reference compound]",100,0.8,1.56,100,3.13,25,–
"CC(=O)OCC1=C(C(=O)O)N2C(=O)[C@@H](NC(=O)[C@H](NC(=O)c3coc4cc(O)c(O)cc4c3=O)c3ccc(O)cc3)[C@H]2SC1 [Example 1, 7β-[D-2-(6,7-Dihydroxychromone-3-carboxamido)-2-(4-hydroxyphenyl)acetamido]-3-acetoxymethyl-3-cephem-4-carboxylic acid]",3.13,3.13,0.2,3.13,3.13,50,> 5000
"CC(=O)OCC1=C(C(=O)O)N2C(=O)[C@@H](NC(=O)[C@H](NC(=O)c3coc4cc(OC(C)=O)c(OC(C)=O)cc4c3=O)c3ccc(O)cc3)[C@H]2SC1 [Example 2, 7β-[D-2-(6,7-Diacetoxychromone-3-carboxamido)-2-(4-hydroxyphenyl)acetamido]-3-acetoxymethyl-3-cephem-4-carboxylic acid]",6.25,6.25,0.2,3.13,12.5,100,> 5000
"CC(=O)OCC1=C(C(=O)O)N2C(=O)[C@@H](NC(=O)[C@H](NC(=O)c3coc4c(O)c(O)ccc4c3=O)c3ccc(O)cc3)[C@H]2SC1 [Example 4, 7β-[D-2-(7,8-Dihydroxychromone-3-carboxamido)-2-(4-hydroxyphenyl)acetamido]-3-acetoxymethyl-3-cephem-4-carboxylic acid]",100,0.8,0.2,1.56,12.5,100,–
"CC(=O)OCC1=C(C(=O)O)N2C(=O)[C@@H](NC(=O)[C@H](NC(=O)c3coc4c(OC(C)=O)c(OC(C)=O)ccc4c3=O)c3ccc(O)cc3)[C@H]2SC1 [Example 5, 7β-[D-2-(7,8-Diacetoxychromone-3-carboxamido)-2-(4-hydroxyphenyl)acetamido]-3-acetoxymethyl-3-cephem-4-carboxylic acid]",25,6.25,0.4,3.13,3.13,25,–
